Assay results from patent publication US9522909B2, “Thiazolidinedione derivatives, preparation thereof and use thereof in cancer treatment” (UNIVERSITE DE LORRAINE, priority 2012, dated 2016).
Where a name gives a salt, the structure may show the parent alone.

Tests used:
[1] = test system: cryopreserved human hepatocytes (primary culture); experiment: Hepatocyte viability (MTT test) on suspended cryopreserved human hepatocytes; format: cell-based; conditions: 90 minutes incubation, relative to non treated cells
Method: The hepatocyte viability corresponds to the percentage of surviving suspended human hepatocytes after 90 minutes of incubation with the compounds of the invention present at a concentration of […].
Hepatocyte viability was measured for different compounds according to the invention with cryopreserved human hepatocytes (primary culture) suspended and distributed in 96-well plates with a density of 0.1×10^6 cells per well, in a […] culture medium per well (DMEM+gentamycin (50 mg/L)+insulin (4 mg/L)+dexamethasone (1 μM)) in a CO2/air (5%/95%) humidified atmosphere at 37° C. After 30 minutes for attaining equilibrium, […] of culture medium containing the tested compounds (dissolved in DMSO) or of medium only containing DMSO (final concentration of 0.1%) were added with stirring at 900 rpm.
Cytotoxicity is evaluated with an MTT (Thiazolyl Blue Tetrazolium Bromide) test. The tested compounds or the DMSO are left to incubate for 90 minutes, and then 10 μL of MTT at 10 mg/10 mL are added per well for 30 mins. Next, the plates are centrifuged for 10 minutes at 2,000 g, the MTT is removed and some DMSO is added in an amount of 100 μL per well. The plates are gently shaked and then absorbance is measured at 595 nm by means of a spectrophotometric reader of micro-plates. The hepatocyte viability measured here corresponds to the percentage of surviving hepatocytes after 90 minutes of incubation with the compounds tested at a concentration of 100 μM, relatively to non treated cells.
The same tests were conducted for a concentration of compounds at 200 μM.
The tests were conducted in two distinct campaigns. In both cases, troglitazone (K) was used as a reference molecule.

HepG2 = experiment: Antiproliferative activity (MTS) on HepG2; format: cell-based; conditions: Homo sapiens, 72 hours; for inhibition at 10 µM: 10^-5 M, triplicate, read-out: percentage of inhibition of cell growth, HepG2; for IC50: averages of two independent values
Method: (§1) Antiproliferative activity was measured for different compounds according to the invention by analysis of cytoxicity at 10^−5M on diverse cancer cell lines in DMSO in triplicate. For certain molecules and certain lines, the same procedure was used for determining the IC50 values (the required concentration in μM for inhibiting by half the proliferation of the cells), by conducting cytotoxicity tests at concentrations from 0.005 μM to 100 μM in duplicate. The procedure is the following. The cells of the relevant line are sown in the suitable medium (see Table III) added with L-glutamine, with 10% (v/v) of fetal calf serum, 100 IU of penicillin, 100 μg/mL of streptomycin and 1.5 μg/mL of fungizone and maintained under 5% of CO2 at 37° C. 96-well plates are sown with the required number of cells per well (see Table III) in 200 μL of medium. 24 hours later, the chemical compounds to be investigated, dissolved in DMSO, are added and the media are maintained for 72 hours under these conditions with a set final concentration in DMSO (1%). The controls received an equal volume of DMSO. The number of viable cells is measured at 490 nm with the MTS reagent (Promega, Madison Wis.). The IC50s are calculated as the concentrations of compounds inducing 50% inhibition of cell proliferation.
(§2) Tables IV and V below indicate the percentage of inhibition of cell growth, i.e. the percentage of dead cells after treatment with a compound dose of 10^−5 M. The tests were conducted in triplicate.

MCF7 = experiment: Antiproliferative activity (MTS) on MCF7; format: cell-based, human; conditions: for inhibition at 10 µM / IC50: Homo sapiens, MCF7, 72 hours; for inhibition at 10 µM: 10^-5 M, triplicate, read-out: percentage of inhibition of cell growth, MCF7; for IC50: averages of two independent values
Method: as §1, §2

LNCaP = experiment: Antiproliferative activity (MTS) on LNCaP; format: cell-based; conditions: Homo sapiens, 72 hours; for inhibition at 10 µM: 10^-5 M, triplicate, read-out: percentage of inhibition of cell growth, LNCaP; for IC50: averages of two independent values
Method: as §1, §2

MDA435 = experiment: Antiproliferative activity (MTS) on MDA435; format: cell-based; conditions: Homo sapiens, 10^-5 M, 72 hours, triplicate, read-out: percentage of inhibition of cell growth, MDA435
Method: as §1, §2

PC3 = experiment: Antiproliferative activity (MTS) on PC3; format: cell-based; conditions: Homo sapiens, PC-3; 10^-5 M, 72 hours, triplicate; read-out: percentage of inhibition of cell growth, PC3
Method: as §1, §2

HCT116 = experiment: Antiproliferative activity (MTS) on HCT116; format: cell-based; conditions: Homo sapiens, HCT-116; 10^-5 M, 72 hours, triplicate; read-out: percentage of inhibition of cell growth, HCT116
Method: as §1, §2

MDA231 = experiment: Antiproliferative activity (MTS) on MDA231; format: cell-based, human; conditions: for inhibition at 10 µM / IC50: Homo sapiens, MDA-MB-231, 72 hours; for inhibition at 10 µM: 10^-5 M, triplicate, read-out: percentage of inhibition of cell growth, MDA231; for IC50: averages of two independent values
Method: as §1, §2

Mia-PaCa = experiment: Antiproliferative activity (MTS) on Mia-PaCa; format: cell-based; conditions: Homo sapiens, MIA PaCa-2, 72 hours; for inhibition at 10 µM: 10^-5 M, triplicate, read-out: percentage of inhibition of cell growth, Mia-PaCa; for IC50: averages of two independent values
Method: as §1, §2

Row | SMILES | Hepatocyte viability % (100 μM) ([1]; Table I campaign) | Hepatocyte viability % (100 μM) ([1]; Table II campaign) | Hepatocyte viability % (200 μM) ([1]; Table I campaign) | Hepatocyte viability % (200 μM) ([1]; Table II campaign) | inhibition at 10 µM (HepG2) | inhibition at 10 µM (MCF7) | inhibition at 10 µM (LNCaP) | inhibition at 10 µM (MDA435) | inhibition at 10 µM (PC3) | inhibition at 10 µM (HCT116) | inhibition at 10 µM (MDA231) | inhibition at 10 µM (Mia-PaCa) | IC50 (HepG2) | IC50 (MCF7) | IC50 (LNCaP) | IC50 (MDA231) | IC50 (Mia-PaCa) | activity on hormono-dependent breast cancer cells (MCF-7), in words (MCF7) | activity on non-hormono-dependent breast cancer cells (MDA-231), in words (MDA231)
1 | Cc1c(C)c2c(c(C)c1O)CCC(C)(COc1ccc(CC3SC(=O)NC3=O)cc1)O2 (stereo not drawn) [K, troglitazone, reference compound] | 79% | 52% | 30% | 22% | 14% | 3% | 17% | 12% | 14% | 9% | 12% | 2% |  |  |  |  |  |  | 
2 | Cc1c(C)c2c(c(C)c1O)CCC(C)(CN1C(=O)S/C(=C\c3ccc(O)cc3)C1=O)O2 (racemic) [H, (±) 5-(4-hydroxy-benzylidene)-3-(6-hydroxy-2,5,7,8-tetramethyl-chroman-2-ylmethyl)-thiazolidine-2,4-dione] |  | 110% |  | 103% | 79% | 95% | 51% | 87% | 64% | 95% | 95% | 102% | 5.7 µM | 3.4 µM | 6.1 µM | 1.9 µM | 1.3 µM |  | 
3 | Cc1c(C)c2c(c(C)c1OC(=O)CCCCCCCN)CCC(C)(COc1ccc(/C=C3\SC(=O)N(C)C3=O)cc1)O2 (racemic) [Compound B, (±) 8-amino {2,5,7,8-tetramethyl-2-[4-(3-methyl-2,4-dioxo-thiazolidin-5-ylidenemethyl)-phenoxymethyl]-chroman-6-yl}octanoate trifluoroacetate] |  |  |  |  | 92% | 101% | 91% | 100% | 98% | 99% | 101% | 101% | 1 µM | 0.9 µM | 1 µM | 0.2 µM | 0.6 µM |  | 
4 | Cc1c(C)c2c(c(C)c1O)CCC(C)(COc1ccc(/C=C3\SC(=O)N(C)C3=O)cc1)O2 (racemic) [J, (±) 5-[4-(6-Hydroxy-2,5,7,8-tetramethyl-chroman-2-ylmethoxy)-benzylidene]-3-methyl-thiazolidine-2,4-dione] |  | 120% |  | 120% | 40% | 0% | 33% | 5% | 14% | 32% | 36% | 20% | 20.4 µM | 52.6 µM | 17.4 µM | 4.9 µM | 24.5 µM | inactive | active
5 | Cc1c(C)c2c(c(C)c1OC(=O)OC(C)(C)C)CCC(C)(COc1ccc(C=C3SC(=O)N(C)C3=O)cc1)O2 (racemic) [F, (±) tertiobutyl(2,5,7,8-tetramethyl-2-[4-(3-methyl-2,4-dioxo-thiazolidin-5-ylidenemethyl)-phenoxymethyl]-chroman-6-yl)carbonate] |  | 81% |  | 66% |  |  |  |  |  |  |  |  |  |  |  |  |  |  | 
6 | O=C1S/C(=C\c2ccc(O)cc2)C(=O)N1C/C=C/c1ccccc1 [Compound A, 5-(4-hydroxy-benzylidene)-3-(3-phenyl-allyl)-thiazolidine-2,4-dione] | 89% |  | 63% |  | 59% | 65% | 37% | 82% | 43% | 83% | 91% | 84% | 10.1 µM | 5.2 µM | 19.4 µM | 2.2 µM | 4.8 µM |  | 
7 | CC1(CN2C(=O)S/C(=C\c3cc(Br)c(O)c(Br)c3)C2=O)CCCCC1 [L, reference compound] | 42% |  | 30% |  | 74% | 76% | 81% | 69% | 47% | 87% | 53% | 65% | 8.8 µM | 9.3 µM | 1.8 µM | 5.7 µM | 8.1 µM |  | 
8 | Cc1c(C)c2c(c(C)c1O)CCC(C)(COc1ccc(/C=C3\SC(=O)N(Cc4ccccc4)C3=O)cc1)O2 (stereo not drawn) [G] |  | 87% |  | 63% |  |  |  |  |  |  |  |  |  |  |  |  |  |  | 
9 | Cc1c(C)c2c(c(C)c1CCCCCCNC(=O)OC(C)(C)C)CCC(C)(COc1ccc(/C=C3\SC(=O)NC3=O)cc1)O2 (racemic) [C, (±) Tert-butyl(6-{2-[4-(2,4-dioxo-thiazolidin-5-ylidenemethyl)-phenoxymethyl]-2,5,7,8-tetramethyl-chroman-6-yl}-hexyl)-carbamate] | 85% |  | 80% |  | 77% | 24% | 68% | 39% | 26% | 55% | 51% | 30% | 2.4 µM | 9.6 µM | 6.4 µM | 2.1 µM | 8.8 µM |  | 
10 | CCN(CC)c1ccc2c(-c3ccc(NC(=S)NCCCCCCc4c(C)c(C)c5c(c4C)CCC(C)(COc4ccc(/C=C6\SC(=O)NC6=O)cc4)O5)cc3C(=O)O)c3ccc(=[N+](CC)CC)cc-3oc2c1 (racemic) [Compound Q, (±) (9-{2-carboxy-4-[3-(6-{2-[4-(2,4-dioxo-thiazolidin-5-ylidenemethyl)-phenoxy-methyl]-2,5,7,8-tetramethyl-chroman-6-yl}-hexyl)-thioureido]-phenyl}-6-diethylamino-xanthen-3-ylidene)-diethyl-ammonium] |  |  |  |  | 75% | 59% | 67% | 59% | 60% | 80% | 71% | 70% |  |  |  |  |  |  | 
